Measured values reported in patent US20240327393A1 (SIRONAX LTD., priority 2021, published 2024).
Like-named read-outs stand apart in the source and are kept apart here.

System: HT-1080 (ATCC, CCL-121) cells
Assay: HT-1080 cell viability assay with ferroptosis inducer RSL3 (Cell Titer-Glo)
Assay type: cell-based
Conditions: HT-1080 cells treated with RSL3, 3-fold, 10-point dilution, 1.1 μM highest concentration, Table 3, read-out: EC50 (nM), ferroptosis inhibitory activity
In short: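 HT-1080 cells (6000 per well) were cultured overnight at 37 °C, then co-treated with RSL3 and compound in a 3-fold, 10-point series topping at 1.1 μM. Viability was read by CellTiter-Glo luminescence and normalized to untreated controls. EC50 came from a sigmoidal non-linear regression fit.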

Row | EC50 (Homo sapiens) | EC50 | SMILES
1 | 0.1 to 100 nM |  | COc1cc(Nc2ccc3c(c2)OCC(=O)N3)c(C)cc1N1CCC(C(F)(F)F)CC1 [Compound 546, 7-((5-methoxy-2-methyl-4-(4-(trifluoromethyl)piperidin-1-yl)phenyl)amino)-2H-benzo[b][1,4]oxazin-3(4H)-one]
2 | 0.1 to 100 nM |  | COc1cc(Nc2cnc3c(c2)OCC(=O)N3)c(C)cc1N1CCC(C(F)(F)F)CC1 [Compound 547, 7-((5-methoxy-2-methyl-4-(4-(trifluoromethyl)piperidin-1-yl)phenyl)amino)-2H-pyrido[3,2-b][1,4]oxazin-3(4H)-one]
3 | 0.1 to 100 nM |  | COc1cc(Nc2cc(C)c3c(c2)OCC(=O)N3)c(C)cc1N1CCC(C(F)(F)F)CC1 [Compound 548, 7-((5-methoxy-2-methyl-4-(4-(trifluoromethyl)piperidin-1-yl)phenyl)amino)-5-methyl-2H-benzo[b][1,4]oxazin-3(4H)-one]
4 | 0.1 to 100 nM |  | Cc1cc(N2CCC(C(F)(F)F)CC2)ccc1Nc1ccc2c(C(N)=O)cn(C)c2c1 [Compound 551, 1-methyl-6-((2-methyl-4-(4-(trifluoromethyl)piperidin-1-yl)phenyl)amino)-1H-indole-3-carboxamide]
5 | 0.1 to 100 nM |  | Cc1cc(N2CCN(C(=O)C(F)(F)F)[C@@H](C)C2)ccc1Nc1ccc2c(c1)OCC(=O)N2 [Compound 552, (S)-7-((2-methyl-4-(3-methyl-4-(2,2,2-trifluoroacetyl)piperazin-1-yl)phenyl)amino)-2H-benzo[b][1,4]oxazin-3(4H)-one]
6 | 0.1 to 100 nM |  | C[C@H]1CN(c2ccc(Nc3ccc4c(c3)OCC(=O)N4)cc2)CCN1C(=O)C(F)(F)F [Compound 553, (S)-7-((4-(3-methyl-4-(2,2,2-trifluoroacetyl)piperazin-1-yl)phenyl)amino)-2H-benzo[b][1,4]oxazin-3(4H)-one]
7 | 0.1 to 100 nM |  | O=C1COc2cc(Nc3ccc(N4CCC(F)CC4)cc3)cnc2N1 [Compound 554, 7-((4-(4-fluoropiperidin-1-yl)phenyl)amino)-2H-pyrido[3,2-b][1,4]oxazin-3(4H)-one]
8 | 0.1 to 100 nM |  | Cc1cc(N2CCC(O)(C(F)(F)F)CC2)ccc1Nc1ccc2c(c1)OCCC(=O)N2 [Compound 555, 8-((4-(4-hydroxy-4-(trifluoromethyl)piperidin-1-yl)-2-methylphenyl)amino)-2,3-dihydrobenzo[b][1,4]oxazepin-4(5H)-one]
9 | 0.1 to 100 nM |  | O=C1CCOc2cc(Nc3ccc(N4CCC(O)(C(F)(F)F)CC4)cc3)ccc2N1 [Compound 556, 8-((4-(4-hydroxy-4-(trifluoromethyl)piperidin-1-yl)phenyl)amino)-2,3-dihydrobenzo[b][1,4]oxazepin-4(5H)-one]
10 | 0.1 to 100 nM |  | CCC1CN(c2ccc(Nc3ccc4c(c3)OCCC(=O)N4)c(C)n2)CCO1 (stereo not shown) [Compound 557, 8-((6-(2-ethylmorpholino)-2-methylpyridin-3-yl)amino)-2,3-dihydrobenzo[b][1,4]oxazepin-4(5H)-one]
11 | 0.1 to 100 nM |  | Cc1cc(N2CCC(F)CC2)ccc1Nc1cnc2c(c1)OCC(=O)N2 [Compound 558, 7-(4-(4-fluoropiperidin-1-yl)-2-methylphenylamino)-2H-pyrido[3,2-b][1,4]oxazin-3(4H)-one]
12 | 0.1 to 100 nM |  | COC(C)(C)C1CCN(c2ccc(Nc3ccc4c(c3)OCC(=O)N4)c(C)c2)CC1 [Compound 559, 7-((4-(4-(2-methoxypropan-2-yl)piperidin-1-yl)-2-methylphenyl)amino)-2H-benzo[b][1,4]oxazin-3(4H)-one]
13 | 0.1 to 100 nM |  | COC(C)(C)C1CCN(c2ccc(Nc3ccc4c(c3)OCC(=O)N4)cc2)CC1 [Compound 560, 7-((4-(4-(2-methoxypropan-2-yl)piperidin-1-yl)phenyl)amino)-2H-benzo[b][1,4]oxazin-3(4H)-one]
14 | 0.1 to 100 nM |  | CC1CN(c2ccc(Nc3ccc4c(c3)OCC(=O)N4)cc2)CC(C(F)(F)F)O1 (stereo not shown) [Compound 561, 7-((4-(2-methyl-6-(trifluoromethyl)morpholino)phenyl)amino)-2H-benzo[b][1,4]oxazin-3(4H)-one]
15 | 0.1 to 100 nM |  | Cc1cc(N2CC(C)OC(C(F)(F)F)C2)ccc1Nc1ccc2c(c1)OCC(=O)N2 (stereo not shown) [Compound 562, 7-((2-methyl-4-(2-methyl-6-(trifluoromethyl)morpholino)phenyl)amino)-2H-benzo[b][1,4]oxazin-3(4H)-one]

The remaining lines, values behind:

Row | SMILES | EC50 (Homo sapiens) | EC50
16 | CCc1nc(N2C[C@@H](C)O[C@@H](C)C2)ccc1Nc1ccc2c(c1)OCC(=O)N2 [Compound 522, 7-((6-((2S,6R)-2,6-dimethylmorpholino)-2-ethylpyridin-3-yl)amino)-2H-benzo[b][1,4]oxazin-3(4H)-one] | 0.1 to 100 nM | 
17 | O=C1COc2cc(Nc3ccc(N4CCC(F)(F)CC4)cc3)ccc2N1 [Compound 524, 7-((4-(4,4-difluoropiperidin-1-yl)phenyl)amino)-2H-benzo[b][1,4]oxazin-3(4H)-one] | 0.1 to 100 nM | 
18 | Cc1cc(N2CCC(F)(F)CC2)ccc1Nc1ccc2c(c1)OCC(=O)N2 [Compound 525, 7-((4-(4,4-difluoropiperidin-1-yl)-2-methylphenyl)amino)-2H-benzo[b][1,4]oxazin-3(4H)-one] | 0.1 to 100 nM | 
19 | Cc1cc(N2CCC(C(F)(F)F)CC2)ccc1Nc1ccc2[nH]c(N)nc2c1 [Compound 526, N5-(2-methyl-4-(4-(trifluoromethyl)piperidin-1-yl)phenyl)-1H-benzo[d]imidazole-2,5-diamine] | 0.1 to 100 nM | 
20 | Cc1cc(N2CCC(C(F)(F)F)CC2)ccc1Nc1ccc2c(c1)NC(=O)C2(C)C [Compound 527, 3,3-dimethyl-6-((2-methyl-4-(4-(trifluoromethyl)piperidin-1-yl)phenyl)amino)indolin-2-one] | 0.1 to 100 nM | 
21 | Cc1cc(N2CC(C)OC(C)C2)ccc1Nc1ccc2c(c1)CCNC2 (stereo not shown) [Compound 528, N-(4-(2,6-dimethylmorpholino)-2-methylphenyl)-1,2,3,4-tetrahydroisoquinolin-6-amine] | 0.1 to 100 nM | 
22 | Cc1cc(N2CCOC(C)C2)ccc1Nc1ccc2c(c1)CCNC2 (stereo not shown) [Compound 529, N-(2-methyl-4-(2-methylmorpholino)phenyl)-1,2,3,4-tetrahydroisoquinolin-6-amine] | 0.1 to 100 nM | 
23 | Cc1cc(N2CCC(C(F)(F)F)CC2)ccc1Nc1ccc2c(c1)OCCNC2=O [Compound 531, 8-((2-methyl-4-(4-(trifluoromethyl)piperidin-1-yl)phenyl)amino)-3,4-dihydrobenzo[f][1,4]oxazepin-5(2H)-one] | 0.1 to 100 nM | 
24 | CN1C(=O)COc2cc(N(C)c3ccc(N4CCC(C(F)(F)F)CC4)cc3)ccc21 [Compound 532, 4-methyl-7-(methyl(4-(4-(trifluoromethyl)piperidin-1-yl)phenyl)amino)-2H-benzo[b][1,4]oxazin-3(4H)-one] | 100 to 1000 nM | 
25 | Cc1cc(N2CCC(C(F)(F)F)CC2)ccc1Nc1ccc2c(c1)OCCC(=O)N2 [Compound 533] | 0.1 to 100 nM | 
26 | O=C1CCOc2cc(Nc3ccc(N4CCC(C(F)(F)F)CC4)cc3)ccc2N1 [Compound 534, 8-((4-(4-(trifluoromethyl)piperidin-1-yl)phenyl)amino)-2,3-dihydrobenzo[b][1,4]oxazepin-4(5H)-one] | 0.1 to 100 nM | 
27 | Cc1cc(N2CCC(C(F)(F)F)CC2)ccc1Nc1ccc2c(c1)CNC(=O)N2 [Compound 535, 6-((2-methyl-4-(4-(trifluoromethyl)piperidin-1-yl)phenyl)amino)-3,4-dihydroquinazolin-2(1H)-one] | 0.1 to 100 nM | 
28 | Cc1cc(N2CC(C)OC(C)C2)ccc1Nc1ccc2c(c1)nc(N)n2C (stereo not shown) [Compound 536, 5-N-[4-(2,6-dimethylmorpholin-4-yl)-2-methylphenyl]-1-methyl-1,3-benzodiazole-2,5-diamine] | 0.1 to 100 nM | 
29 | Cc1c(Nc2ccc3c(c2)OCC(=O)N3)ccc(N2CCC(C(F)(F)F)CC2)c1C#N [Compound 537, 2-methyl-3-((3-oxo-3,4-dihydro-2H-benzo[b][1,4]oxazin-7-yl)amino)-6-(4-(trifluoromethyl)piperidin-1-yl)benzonitrile] | 0.1 to 100 nM | 
30 | Cc1cc(N2CCC(C(F)(F)F)CC2)ccc1Nc1ccc2c(c1)COC(=O)N2 [Compound 539, 6-((2-methyl-4-(4-(trifluoromethyl)piperidin-1-yl)phenyl)amino)-1,4-dihydro-2H-benzo[d][1,3]oxazin-2-one] | 0.1 to 100 nM | 
31 | CC1(O)CCN(c2ccc(Nc3ccc4c(c3)OCC(=O)N4)cc2)CC1 [Compound 540, 7-((4-(4-hydroxy-4-methylpiperidin-1-yl)phenyl)amino)-2H-benzo[b][1,4]oxazin-3(4H)-one] | 100 to 1000 nM | 
32 | Cc1cc(N2CCC(C)(O)CC2)ccc1Nc1ccc2c(c1)OCC(=O)N2 [Compound 541, 7-((4-(4-hydroxy-4-methylpiperidin-1-yl)-2-methylphenyl)amino)-2H-benzo[b][1,4]oxazin-3(4H)-on] | 100 to 1000 nM | 
33 | Cc1cc(N2CCC(C(C)(C)O)CC2)ccc1Nc1ccc2c(c1)OCC(=O)N2 [Compound 542, 7-((4-(4-(2-hydroxypropan-2-yl)piperidin-1-yl)-2-methylphenyl)amino)-2H-benzo[b][1,4]oxazin-3(4H)-one] | 0.1 to 100 nM | 
34 | CC(C)(O)C1CCN(c2ccc(Nc3ccc4c(c3)OCC(=O)N4)cc2)CC1 [Compound 543, 7-((4-(4-(2-hydroxypropan-2-yl)piperidin-1-yl)phenyl)amino)-2H-benzo[b][1,4]oxazin-3(4H)-on] | 0.1 to 100 nM | 
35 | Cc1cc(N2CCC(C(F)(F)F)CC2)ccc1Nc1ccc2c(c1)CNC2 [Compound 544, N-(2-methyl-4-(4-(trifluoromethyl)piperidin-1-yl)phenyl)isoindolin-5-amine] |  | 0.1 to 100 nM
36 | Cc1cc(N2CCC(C(F)(F)F)CC2)ccc1Nc1ccc2c(c1)CN(C(N)=O)C2 [Compound 545, 5-((2-methyl-4-(4-(trifluoromethyl)piperidin-1-yl)phenyl)amino) isoindoline-2-carboxamide] | 0.1 to 100 nM | 
37 | O=C1COc2cc(Nc3ccc(N4C5CCC4CC5)cc3)ccc2N1 [Compound 549, 7-((4-(7-azabicyclo[2.2.1]heptan-7-yl)phenyl)amino)-2H-benzo[b][1,4]oxazin-3(4H)-one] | 0.1 to 100 nM | 
